US10370333B2 (Sanford Burnham Prebys Medical Discovery Institute, priority 2012, dated 2019)

Target: TNAP (Homo sapiens (Human), UniProt P05186)
Assay: TNAP (PPi) inhibition assay, pyrophosphate as substrate
Assay type: biochemical
How it was run: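 Secreted epitope-tagged human TNAP from transiently transfected COS-1 cells, dialyzed to remove phosphate. Inhibitors tested kinetically at pH 7.4 with PPi as substrate; released phosphate quantified colorimetrically with Biomol Green reagent.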

IC50	Structure (SMILES)
0.1 to 1 µM	CNc1ccc(NS(=O)(=O)c2cc(Br)ccc2OC)cn1 [Example VIII-5, 5-Bromo-2-methoxy-N-(6-methylamino-pyridin-3-yl)-benzenesulfonamide]
> 1 µM	CNc1ccc(NS(=O)(=O)c2cc(OC)ccc2OC)cn1 [Example VIII-6, 2,5-Dimethoxy-N-(6-methylamino-pyridin-3-yl)-benzenesulfonamide]
> 1 µM	COc1ccc(Br)cc1S(=O)(=O)Nc1ccc(N(C)C)nc1 [Example VIII-7, 5-Bromo-N-(6-(dimethylamino)pyridin-3-yl)-2-methoxybenzenesulfonamide]
> 1 µM	COc1ccc(OC)c(S(=O)(=O)Nc2ccc(N(C)C)nc2)c1 [Example VIII-8, N-(6-(Dimethylamino)pyridin-3-yl)-2,5-dimethoxybenzenesulfonamide]
0.1 to 1 µM	CCN(CC)c1ccc(NS(=O)(=O)c2cc(Br)ccc2OC)cn1 [Example VIII-9, 5-Bromo-N-(6-(diethylamino)pyridin-3-yl)-2-methoxybenzenesulfonamide]
> 1 µM	CCN(CC)c1ccc(NS(=O)(=O)c2cc(OC)ccc2OC)cn1 [Example VIII-10, N-(6-(Diethylamino)pyridin-3-yl)-2,5-dimethoxybenzenesulfonamide]
> 1 µM	COCCNc1ccc(NS(=O)(=O)c2cc(Br)ccc2OC)cn1 [Example VIII-11, 5-Bromo-2-methoxy-N-(6-((2-methoxyethyl)amino)pyridin-3-yl)benzenesulfonamide]
> 1 µM	COCCNc1ccc(NS(=O)(=O)c2cc(OC)ccc2OC)cn1 [Example VIII-12, 2,5-Dimethoxy-N-(6-((2-methoxyethyl)amino)pyridin-3-yl)benzenesulfonamide]
> 1 µM	COc1ccc(Br)cc1S(=O)(=O)Nc1ccc(NCCN(C)C)nc1 [Example VIII-13, 5-Bromo-N-(6-((2-(dimethylamino)ethyl)amino)pyridin-3-yl)-2-methoxybenzenesulfonamide]
> 1 µM	COc1ccc(OC)c(S(=O)(=O)Nc2ccc(NCCN(C)C)nc2)c1 [Example VIII-14, N-(6-((2-(Dimethylamino)ethyl)amino)pyridin-3-yl)-2,5-dimethoxybenzenesulfonamide]
> 1 µM	COc1ccc(Br)cc1S(=O)(=O)Nc1ccc(N2CCCCC2)nc1 [Example VIII-17, 5-Bromo-2-methoxy-N-(3,4,5,6-tetrahydro-2H-[1,2′]bipyridinyl-5′-yl)-benzenesulfonamide]
> 1 µM	COc1ccc(OC)c(S(=O)(=O)Nc2ccc(N3CCCCC3)nc2)c1 [Example VIII-18, 2,5-Dimethoxy-N-(3,4,5,6-tetrahydro-2H-[1,2′]bipyridinyl-5′-yl)-benzenesulfonamide]
> 1 µM	COc1ccc(Br)cc1S(=O)(=O)Nc1ccc(N2CCN(C)CC2)nc1 [Example VIII-19, 5-Bromo-2-methoxy-N-[6-(4-methyl-piperazin-1-yl)-pyridin-3-yl]-benzenesulfonamide]
> 1 µM	COc1ccc(OC)c(S(=O)(=O)Nc2ccc(N3CCN(C)CC3)nc2)c1 [Example VIII-20, 2,5-Dimethoxy-N-[6-(4-methyl-piperazin-1-yl)-pyridin-3-yl]-benzenesulfonamide]
< 0.1 µM	O=S(=O)(Nc1cnc2ccccc2c1)c1cc(Br)ccc1OC(F)(F)F [Example X-1, 5-Bromo-N-quinolin-3-yl-2-trifluoromethoxy-benzenesulfonamide]
0.1 to 1 µM	O=S(=O)(Nc1cnc2ccccc2c1)c1cc(F)ccc1OC(F)(F)F [Example X-2, 5-Fluoro-N-quinolin-3-yl-2-trifluoromethoxy-benzenesulfonamide]
< 0.1 µM	O=S(=O)(Nc1cnc2ccccc2c1)c1cc(Cl)ccc1OC(F)(F)F [Example X-3, 5-Chloro-N-quinolin-3-yl-2-trifluoromethoxy-benzenesulfonamide]
< 0.1 µM	Cc1ccc(OC(F)(F)F)c(S(=O)(=O)Nc2cnc3ccccc3c2)c1 [Example X-4, 5-Methyl-N-quinolin-3-yl-2-trifluoromethoxy-benzenesulfonamide]
> 1 µM	Cc1ccc(OC(F)(F)F)cc1S(=O)(=O)Nc1cnc2ccccc2c1 [Example X-5, 2-methyl-N-quinolin-3-yl-5-trifluoromethoxy-benzenesulfonamide]
< 0.1 µM	COc1ccc(OC(F)(F)F)cc1S(=O)(=O)Nc1cnc2ccccc2c1 [Example X-6, 2-Methoxy-N-(quinolin-3-yl)-5-(trifluoromethoxy)benzenesulfonamide]
< 0.1 µM	COc1ccc(-c2cncc(NS(=O)(=O)c3cc(Cl)ccc3OC(F)(F)F)c2)cc1 [Example XI-1, 5-chloro-N-[5-(4-methoxy-phenyl)-pyridin-3-yl]-2-trifluoromethoxy-benzenesulfonamide]
< 0.1 µM	COc1ccc(-c2cncc(NS(=O)(=O)c3cc(OC(F)(F)F)ccc3OC)c2)cc1 [Example XI-2, 2-Methoxy-N-(5-(4-methoxyphenyl)pyridin-3-yl)-5-(trifluoromethoxy)benzenesulfonamide]
< 0.1 µM	O=S(=O)(Nc1cncc(-c2ccc(F)cc2)c1)c1cc(Cl)ccc1OC(F)(F)F [Example XI-8, 5-Chloro-N-(5-(4-fluorophenyl)pyridin-3-yl)-2-(trifluoromethoxy)benzenesulfonamide]
< 0.1 µM	O=S(=O)(Nc1cncc(-c2ccco2)c1)c1cc(Cl)ccc1OC(F)(F)F [Example XI-12, 5-Chloro-N-(5-(furan-2-yl)pyridin-3-yl)-2-(trifluoromethoxy)benzenesulfonamide]
< 0.1 µM	COc1ccc(OC(F)(F)F)cc1S(=O)(=O)Nc1cncc(-c2ccco2)c1 [Example XI-13, N-(5-(Furan-2-yl)pyridin-3-yl)-2-methoxy-5-(trifluoromethoxy)benzenesulfonamide]
< 0.1 µM	COc1ccc(OC(F)(F)F)cc1S(=O)(=O)Nc1cncc(-c2cccs2)c1 [Example XI-16, 2-Methoxy-N-(5-(thiophen-2-yl)pyridin-3-yl)-5-(trifluoromethoxy)benzenesulfonamide]

Structure (SMILES)	IC50
COc1ccc(Br)cc1S(=O)(=O)Nc1ccc(Nc2ccccc2)nc1 [Example VIII-15, 5-Bromo-2-methoxy-N-(6-(phenylamino)pyridin-3-yl)benzenesulfonamide]	> 1 µM
O=S(=O)(Nc1cncc(-c2ccc(OC(F)(F)F)cc2)c1)c1cc(Cl)ccc1OC(F)(F)F [Example XI-3, 5-Chloro-2-(trifluoromethoxy)-N-(5-(4-(trifluoromethoxy)phenyl)pyridin-3-yl)benzenesulfonamide]	0.1 to 1 µM
O=S(=O)(Nc1cncc(-c2ccc(OC(F)(F)F)cc2)c1)c1cc(Br)ccc1OC(F)(F)F [Example XI-4, 5-Bromo-2-(trifluoromethoxy)-N-(5-(4-(trifluoromethoxy)phenyl)pyridin-3-yl)benzenesulfonamide]	0.1 to 1 µM
O=S(=O)(Nc1cncc(-c2ccc(F)cc2)c1)c1cc(Br)ccc1OC(F)(F)F [Example XI-9, 5-Bromo-N-(5-(4-fluorophenyl)pyridin-3-yl)-2-(trifluoromethoxy)benzenesulfonamide]	0.1 to 1 µM
COc1ccc(OC(F)(F)F)cc1S(=O)(=O)Nc1cncc(-c2ccc(F)cc2)c1 [Example XI-10, N-(5-(4-Fluorophenyl)pyridin-3-yl)-2-methoxy-5-(trifluoromethoxy)benzenesulfonamide]	0.1 to 1 µM
N#Cc1ccc(-c2cncc(NS(=O)(=O)c3cc(Br)ccc3OC(F)(F)F)c2)cc1 [Example XI-11, 5-Bromo-N-(5-(4-cyanophenyl)pyridin-3-yl)-2-(trifluoromethoxy)benzenesulfonamide]	0.1 to 1 µM
O=S(=O)(Nc1cncc(-c2cccs2)c1)c1cc(Cl)ccc1OC(F)(F)F [Example XI-14, 5-Chloro-N-(5-(thiophen-2-yl)pyridin-3-yl)-2-(trifluoromethoxy)benzenesulfonamide]	0.1 to 1 µM
O=S(=O)(Nc1cncc(-c2cccs2)c1)c1cc(Br)ccc1OC(F)(F)F [Example XI-15, 5-Bromo-N-(5-(thiophen-2-yl)pyridin-3-yl)-2-(trifluoromethoxy)benzenesulfonamide]	0.1 to 1 µM
O=S(=O)(Nc1cncc(-c2ccccn2)c1)c1cc(Cl)ccc1OC(F)(F)F [Example XI-17, N-([2,3′-Bipyridin]-5′-yl)-5-chloro-2-(trifluoromethoxy)benzenesulfonamide]	0.1 to 1 µM
O=S(=O)(Nc1cncc(-c2ccccn2)c1)c1cc(Br)ccc1OC(F)(F)F [Example XI-18, N-([2,3′-Bipyridin]-5′-yl)-5-bromo-2-(trifluoromethoxy)benzenesulfonamide]	0.1 to 1 µM
COc1ccc(OC(F)(F)F)cc1S(=O)(=O)Nc1cncc(-c2ccccn2)c1 [Example XI-19, N-([2,3′-Bipyridin]-5′-yl)-2-methoxy-5-(trifluoromethoxy)benzenesulfonamide]	0.1 to 1 µM
O=S(=O)(Nc1cncc(-c2cnccn2)c1)c1cc(Cl)ccc1OC(F)(F)F [Example XI-20, 5-Chloro-N-(5-(pyrazin-2-yl)pyridin-3-yl)-2-(trifluoromethoxy)benzenesulfonamide]	0.1 to 1 µM
O=S(=O)(Nc1cncc(-c2cnccn2)c1)c1cc(Br)ccc1OC(F)(F)F [Example XI-21, 5-Bromo-N-(5-(pyrazin-2-yl)pyridin-3-yl)-2-(trifluoromethoxy)benzenesulfonamide]	0.1 to 1 µM
COc1ccc(OC(F)(F)F)cc1S(=O)(=O)Nc1cncc(-c2cnccn2)c1 [Example XI-22, 2-Methoxy-N-(5-(pyrazin-2-yl)pyridin-3-yl)-5-(trifluoromethoxy)benzenesulfonamide]	0.1 to 1 µM
O=S(=O)(Nc1cncc(-c2ncccn2)c1)c1cc(Cl)ccc1OC(F)(F)F [Example XI-23, 5-chloro-N-(5-(pyrimidin-2-yl)pyridin-3-yl)-2-(trifluoromethoxy)benzenesulfonamide]	> 1 µM
O=S(=O)(Nc1cncc(-c2ncccn2)c1)c1cc(Br)ccc1OC(F)(F)F [Example XI-24, 5-Bromo-N-(5-(pyrimidin-2-yl)pyridin-3-yl)-2-(trifluoromethoxy)benzenesulfonamide]	0.1 to 1 µM
